target: T1, recombinant guanylate cyclase reporter cell line (Rattus norvegicus, UniProt P19686+P20595); assay: Action on recombinant guanylate cyclase reporter cell line; format: cell-based; conditions: in some cases mean values from individual determinations
T1 construct: expressed in transfected cells; host or cells: recombinant reporter cell line
T1 sequence (P19686 1-690): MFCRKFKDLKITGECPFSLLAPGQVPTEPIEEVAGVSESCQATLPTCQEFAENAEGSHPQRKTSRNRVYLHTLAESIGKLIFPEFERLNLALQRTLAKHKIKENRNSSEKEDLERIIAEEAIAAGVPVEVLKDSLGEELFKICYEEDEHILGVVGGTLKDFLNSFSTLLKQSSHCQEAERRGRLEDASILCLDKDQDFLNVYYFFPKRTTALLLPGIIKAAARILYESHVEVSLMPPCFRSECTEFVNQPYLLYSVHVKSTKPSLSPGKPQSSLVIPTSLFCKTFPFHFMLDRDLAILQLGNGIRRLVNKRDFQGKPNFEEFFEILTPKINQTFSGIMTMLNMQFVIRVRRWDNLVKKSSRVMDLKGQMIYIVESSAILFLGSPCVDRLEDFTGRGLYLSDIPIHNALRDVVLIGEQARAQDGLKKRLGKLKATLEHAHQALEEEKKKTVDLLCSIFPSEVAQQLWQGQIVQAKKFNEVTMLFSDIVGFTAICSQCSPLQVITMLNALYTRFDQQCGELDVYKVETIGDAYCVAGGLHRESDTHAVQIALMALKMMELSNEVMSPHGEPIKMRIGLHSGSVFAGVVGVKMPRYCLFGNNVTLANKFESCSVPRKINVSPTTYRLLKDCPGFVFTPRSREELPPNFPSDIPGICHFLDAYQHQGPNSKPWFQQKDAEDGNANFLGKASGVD
T1 sequence (P20595 1-619): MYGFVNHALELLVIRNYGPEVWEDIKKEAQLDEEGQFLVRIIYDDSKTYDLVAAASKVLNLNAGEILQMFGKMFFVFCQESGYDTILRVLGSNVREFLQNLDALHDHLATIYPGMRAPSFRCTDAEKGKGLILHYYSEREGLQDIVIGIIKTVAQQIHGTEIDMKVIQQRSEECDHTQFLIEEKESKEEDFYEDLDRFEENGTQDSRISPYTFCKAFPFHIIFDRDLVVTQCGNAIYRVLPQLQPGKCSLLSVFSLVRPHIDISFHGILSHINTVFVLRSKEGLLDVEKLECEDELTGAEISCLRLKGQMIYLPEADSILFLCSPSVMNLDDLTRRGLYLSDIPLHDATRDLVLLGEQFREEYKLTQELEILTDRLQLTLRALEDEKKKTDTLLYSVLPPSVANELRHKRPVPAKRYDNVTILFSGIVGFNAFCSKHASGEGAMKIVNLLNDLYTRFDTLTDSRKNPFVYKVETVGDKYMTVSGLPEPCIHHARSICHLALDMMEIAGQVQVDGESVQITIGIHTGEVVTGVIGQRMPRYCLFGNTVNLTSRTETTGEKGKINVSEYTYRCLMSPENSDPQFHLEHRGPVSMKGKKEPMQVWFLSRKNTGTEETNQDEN
Method: B-2. Action on Recombinant Guanylate Cyclase Reporter Cell Line
The cellular action of the compounds according to the invention is determined on a recombinant guanylate cyclase reporter cell line, as described in F. Wunder et al., Anal. Biochem. 339, 104-112 (2005).
Representative MEC values (MEC=minimal effective concentration) for the compounds according to the invention are shown in the following table (in some cases as mean values obtained from individual determinations): […]

Row | Compound | MEC (minimal effective concentration) [µM]
1 | Cc1cc(OCc2c(F)cccc2F)c2nc(C)c(C(=O)NCC3(N)CC3)n2c1 [Example 40, N-[(1-aminocyclopropyl)methyl]-8-[(2,6-difluorobenzyl)oxy]-2,6-dimethylimidazo[1,2-a]-pyridine-3-carboxamide] | 0.10
2 | Cc1nc2c(OCc3c(F)cccc3F)cc(Cl)cn2c1C(=O)NCCN1CC(N2CCCC2)C1 [Example 156, 6-chloro-8-[(2,6-difluorobenzyl)oxy]-2-methyl-N-{2-[3-(pyrrolidin-1-yl)azetidin-1-yl]ethyl}-imidazo[1,2-a]pyridine-3-carboxamide] | 3.00
3 | Cc1nc2c(OCc3c(F)cccc3F)cccn2c1C(=O)NC(CN)c1ccc(F)c(F)c1 (single isomer, unassigned; enantiomer a) [Example 12, ent-N-[2-Amino-1-(3,4-difluorophenyl)ethyl]-8-[(2,6-difluorobenzyl)oxy]-2-methylimidazo[1,2-a]-pyridine-3-carboxamide (Enantiomer A)] | 1.00
4 | Cc1nc2c(OCc3c(F)ccc(F)c3F)cccn2c1C(=O)NC(CN)c1ccc(F)c(F)c1 (stereo not drawn) [Example 100, ent-N-[2-amino-1-(3,4-difluorophenyl)ethyl]-2-methyl-8-[(2,3,6-trifluorobenzyl)oxy]imidazo[1,2-a]pyridine-3-carboxamide] | 0.30
5 | Cc1nc2c(OCc3c(F)cccc3F)cccn2c1C(=O)NC(CN)c1ccc(F)cc1 (racemic) [Example 9, rac-N-[2-Amino-1-(4-fluorophenyl)ethyl]-8-[(2,6-difluorobenzyl)oxy]-2-methylimidazo[1,2-a]-pyridine-3-carboxamide] | 0.30
6 | Cc1cc(OCc2c(F)cccc2F)c2nc(C)c(C(=O)NC3CCC3N)n2c1 (single isomer, unassigned; enantiomer b) [Example 329, ent-N-(2-aminocyclobutyl)-8-[(2,6-difluorobenzyl)oxy]-2,6-dimethylimidazo[1,2-a]pyridine-3-carboxamide (Enantiomer B)] | 0.30
7 | CCCC(C)(N)CNC(=O)c1c(C)nc2c(OC(C)c3c(F)cccc3F)cc(C)cn12 (centres unmarked) [Example 257, N-(2-Amino-2-methylpentyl)-8-[1-(2,6-difluorophenyl)ethoxy]-2,6-dimethylimidazo[1,2-a]-pyridine-3-carboxamide] | 1.00
8 | COCC(N)CNC(=O)c1c(C)nc2c(OCc3c(F)cccc3F)cc(C)cn12 (single isomer, unassigned) [Example 242, ent-N-(2-Amino-3-methoxypropyl)-8-[(2,6-difluorobenzyl)oxy]-2,6-dimethylimidazo[1,2-a]-pyridine-3-carboxamide] | 0.30
9 | CCCC(C)(N)CNC(=O)c1c(C)nc2c(OCc3c(F)cccc3F)cc(C)cn12 (racemic) [Example 232, rac-N-(2-Amino-2-methylpentyl)-8-[(2,6-difluorobenzyl)oxy]-2,6-dimethylimidazo[1,2-a]pyridine-3-carboxamide] | 0.10
10 | Cc1nc2c(OCc3c(F)cccc3F)cccn2c1C(=O)NCC(C(C)C)N(C)C (single isomer, unassigned; ent-8) [Example 188, ent-8-[(2,6-Difluorobenzyl)oxy]-N-[2-(dimethylamino)-3-methylbutyl]-2-methylimidazo[1,2-a]-pyridine-3-carboxamide] | 1.00
11 | Cc1nc2c(OCc3c(F)cccc3F)cccn2c1C(=O)NCCN(C(C)C)C(C)C [Example 88, 8-[(2,6-difluorobenzyl)oxy]-N-[2-(diisopropyl-amino)ethyl]-2-methylimidazo[1,2-a]pyridine-3-carboxamide] | 1.00
12 | Cc1nc2c(OCc3c(F)cccc3F)cccn2c1C(=O)NC1CC2CCCC(C1)N2C (centres unmarked) [Example 90, 8-[(2,6-difluorobenzyl)oxy]-2-methyl-N-(9-methyl-9-azabicyclo[3.3.1]non-3-yl)imidazo[1,2-a]pyridine-3-carboxamide] | 0.10
13 | NCC(NC(=O)c1c(C2CC2)nc2c(OCc3c(F)cccc3F)cccn12)c1ccc(F)c(F)c1 (stereo not drawn) [Example 54, ent-N-[2-amino-1-(3,4-difluorophenyl)ethyl]-2-cyclopropyl-8-[(2,6-difluorobenzyl)oxy]-imidazo[1,2-a]pyridine-3-carboxamide] | 1.00
14 | Cc1nc2c(OCc3c(F)cccc3F)cc(Cl)cn2c1C(=O)NC1CNc2ccccc21 (racemic) [Example 49, rac-6-Chloro-8-[(2,6-difluorobenzyl)oxy]-N-(2,3-dihydro-1H-indol-3-yl)-2-methylimidazo[1,2-a]-pyridine-3-carboxamide] | 0.30
15 | Cc1nc2c(OCc3c(F)cccc3F)cccn2c1C(=O)NCCNc1ccc(F)cc1 [Example 79, 8-[(2,6-difluorobenzyl)oxy]-N-{2-[(4-fluoro-phenyl)amino]ethyl}-2-methylimidazo[1,2-a]-pyridine-3-carboxamide] | 1.00
16 | Cc1cc(OCc2c(F)cccc2F)c2nc(C)c(C(=O)N[C@@H]3CCCC[C@H]3N)n2c1 [Example 251, ent-N-[(1R,2R)-2-Aminocyclohexyl]-8-[(2,6-difluorobenzyl)oxy]-2,6-dimethylimidazo[1,2-a]-pyridine-3-carboxamide] | 3.00
17 | Cc1nc2c(OCc3c(F)cccc3F)cccn2c1C(=O)NCC(C)N1CCOCC1 (racemic) [Example 132, rac-8-[(2,6-difluorobenzyl)oxy]-2-methyl-N-[2-(morpholin-4-yl)propyl]imidazo[1,2-a]pyridine-3-carboxamide] | 1.00
18 | Cc1nc2c(OCc3c(F)cccc3F)cc(Cl)cn2c1C(=O)NCCN1CCN(C)CC1 [Example 154, 6-chloro-8-[(2,6-difluorobenzyl)oxy]-2-methyl-N-[2-(4-methylpiperazin-1-yl)ethyl]imidazo[1,2-a]pyridine-3-carboxamide] | 1.00
19 | Cc1cc(OCc2c(F)cccc2F)c2nc(C)c(C(=O)NCCNC(C)C)n2c1 (racemic) [Example 135, rac-8-[(2,6-difluorobenzyl)oxy]-N-[2-(isopropylamino)ethyl]-2,6-dimethylimidazo[1,2-a]pyridine-3-carboxamide] | 1.00
20 | CC[C@@H](N)CNC(=O)c1c(C)nc2c(OCc3c(F)cccc3F)cc(Cl)cn12 [Example 35, ent-N-[(2R)-2-aminobutyl]-6-chloro-8-[(2,6-difluorobenzyl)oxy]-2-methyl-imidazo[1,2-a]-pyridine-3-carboxamide] | 1.00
21 | Cc1nc2c(OCc3c(F)cccc3F)cc(Cl)cn2c1C(=O)NCC(N)CC(F)(F)F (single isomer, unassigned) [Example 192, ent-N-(2-Amino-4,4,4-trifluorobutyl)-6-chloro-8-[(2,6-difluorobenzyl)oxy]-2-methylimidazo[1,2-a]pyridine-3-carboxamide] | 0.30
22 | Cc1cc(OCc2c(F)cccc2F)c2nc(C)c(C(=O)NCC3CCc4ccccc4N3)n2c1 (racemic) [Example 235, rac-8-[(2,6-Difluorobenzyl)oxy]-2,6-dimethyl-N-(1,2,3,4-tetrahydroquinolin-2-ylmethyl)imidazo-[1,2-a]pyridine-3-carboxamide] | 0.30
23 | Cc1nc2c(OCC3CCCCC3)cccn2c1C(=O)NC(CN)c1ccc(F)c(F)c1 (racemic) [Example 46, rac-N-[2-Amino-1-(3,4-difluorophenyl)ethyl]-8-(cyclohexylmethoxy)-2-methylimidazo[1,2-a]-pyridine-3-carboxamide] | 1.00

From patent US20150274719A1, “AMINO-SUBSTITUTED IMIDAZO[1,2-A]PYRIDINECARBOXAMIDES AND THEIR USE” (BAYER PHARMA AKTIENGESELLSCHAFT, priority 2012, published 2015)
